Activity calls are given as the source filed them. The rule behind the calls is not given here.
Columns and labels:
[1] = Antiproliferative activity against J774.2 cells assessed as inhibition of cell proliferation measured after 72 hrs by MTT assay; type: toxicity, cell-based; conditions: mouse
[2] = Antiproliferative activity against human HaCaT cells assessed as inhibition of cell proliferation measured after 72 hrs by MTT assay; type: toxicity, cell-based
K562 [3] = test: Antiproliferative activity against human K562 cells assessed as inhibition of cell proliferation measured after 72 hrs by MTT assay; type: functional, cell-based; conditions: K562, 72 h
[4] = Antiproliferative activity against NIH3T3 cells assessed as inhibition of cell proliferation measured after 72 hrs by MTT assay; type: toxicity, cell-based; conditions: mouse
PC-3 = test: Antiproliferative activity against human PC-3 cells assessed as inhibition of cell proliferation measured after 48 hrs by SRB assay; type: functional, cell-based; conditions: PC-3, 48 h
OVCAR-4 = test: Antiproliferative activity against human OVCAR-4 cells assessed as inhibition of cell proliferation measured after 48 hrs by SRB assay; type: functional, cell-based; conditions: OVCAR-4, 48 h
MDA-MB-468 = test: Antiproliferative activity against human MDA-MB-468 cells assessed as inhibition of cell proliferation measured after 48 hrs by SRB assay; type: functional, cell-based; conditions: MDA-MB-468, 48 h
KM12 = test: Antiproliferative activity against human KM12 cells assessed as inhibition of cell proliferation measured after 48 hrs by SRB assay; type: functional, cell-based; conditions: KM12, 48 h
NCI/ADR-RES = test: Antiproliferative activity against human NCI-ADR-RES cells assessed as inhibition of cell proliferation measured after 48 hrs by SRB assay; type: functional, cell-based
CAKI-1 = test: Antiproliferative activity against human CAKI-1 cells assessed as inhibition of cell proliferation measured after 48 hrs by SRB assay; type: functional, cell-based; conditions: CAKI-1, 48 h
SK-MEL-5 = test: Antiproliferative activity against human SK-MEL-5 cells assessed as inhibition of cell proliferation measured after 48 hrs by SRB assay; type: functional, cell-based; conditions: SK-MEL-5, 48 h
BT-549 = test: Antiproliferative activity against human BT-549 cells assessed as inhibition of cell proliferation measured after 48 hrs by SRB assay; type: functional, cell-based; conditions: BT-549, 48 h
UACC-62 = test: Antiproliferative activity against human UACC-62 cells assessed as inhibition of cell proliferation measured after 48 hrs by SRB assay; type: functional, cell-based; conditions: UACC-62, 48 h
[5] = biological target: NAD-dependent protein deacetylase sirtuin-2 (Homo sapiens, UniProt Q8IXJ6); test: Inhibition of N-terminal His6-tagged human Sirt2 (25 to 389 residues) using ZMAL as substrate incubated for 4 hrs by fluorescence based assay
[6] = Selectivity index, ratio of IC50 for […] to IC50 for human K562 cells; type: functional
K562 [7] = test: Anticancer activity against human K562 cells assessed as cell growth at 10^-5 M incubated for 48 hrs by SRB assay relative to control; type: functional; conditions: K562, 48 h, dose 1 10^-5M, read-out: Activity
K562 [8] = test: Induction of DNA damage in human K562 cells assessed as tail DNA level at 700 nM incubated for 24 hrs by comet assay (reference value: 0.5 to 0.6 %); type: functional
K562 [9] = test: Induction of DNA damage in human K562 cells assessed as olive tail moment level at 70 nM incubated for 24 hrs by comet assay (reference value: 0.2); type: functional
K562 [10] = test: Induction of DNA damage in human K562 cells assessed as olive tail moment level at 700 nM incubated for 24 hrs by comet assay (reference value: 0.2); type: functional
K562 [11] = test: Induction of pro-apoptotic morphological changes in human K562 cells at 70 to 700 nM incubated for 24 hrs by Hoescht-33342 staining based analysis; type: functional, cell-based; conditions: dose 70-700 nM
K562 [12] = test: Induction of DNA damage in human K562 cells assessed as tail DNA level at 70 nM incubated for 24 hrs by comet assay (reference value: 0.5 to 0.6 %); type: functional
Hep 3B2 = test: Antiproliferative activity against human Hep3B cells assessed as inhibition of cell proliferation; type: functional, cell-based
T47D = test: Antiproliferative activity against human T47D cells assessed as inhibition of cell proliferation measured after 48 hrs by SRB assay; type: functional, cell-based

NAD-dependent protein deacetylase sirtuin-2, sequence (Q8IXJ6 whole entry, the tested form may be a part): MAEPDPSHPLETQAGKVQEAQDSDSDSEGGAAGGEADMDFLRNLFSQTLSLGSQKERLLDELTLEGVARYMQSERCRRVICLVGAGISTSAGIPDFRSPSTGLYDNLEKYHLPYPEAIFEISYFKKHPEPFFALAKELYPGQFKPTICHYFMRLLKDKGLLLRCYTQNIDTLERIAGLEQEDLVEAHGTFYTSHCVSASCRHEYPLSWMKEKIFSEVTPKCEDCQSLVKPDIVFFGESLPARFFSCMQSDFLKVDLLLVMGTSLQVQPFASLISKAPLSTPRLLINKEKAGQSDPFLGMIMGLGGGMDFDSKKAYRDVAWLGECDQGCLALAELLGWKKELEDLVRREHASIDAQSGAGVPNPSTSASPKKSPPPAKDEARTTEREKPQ

Compound | IC50 (K562 [3]) [µM] | IC50 at 72 h [1] [µM] | IC50 at 72 h [2] [µM] | IC50 at 72 h [4] [µM] | also measured
Cc1cnnn1-c1ccc(C(=O)Nc2ncc(Cc3ccccc3)s2)cc1 |  |  |  |  | IC50 (PC-3): 4.26 µM; IC50 (OVCAR-4): 3.02 µM; IC50 (MDA-MB-468): 2.02 µM; IC50 (KM12): 3.68 µM; IC50 (NCI/ADR-RES): 4.06 µM; IC50 (CAKI-1): 4.7 µM; IC50 (SK-MEL-5): 2.8 µM; IC50 (BT-549): 3.99 µM; IC50 (UACC-62): 3.28 µM
COCCn1cc(COc2cccc(Cc3cnc(NC(=O)CSc4nc(C)cc(C)n4)s3)c2)nn1 |  |  |  |  | IC50 [5]: 0.118 µM
O=C(/C=C/c1ccc(-n2cnnn2)cc1)Nc1ncc(Cc2ccccc2)s1 | 1.05 | 37.2 | 50.4 | > 100 | Ratio IC50 [6]: 35.5
COc1cccc2c1C(=O)c1c(O)c3c(c(O)c1C2=O)C[C@@](O)(C(=O)CO)C[C@@H]3O[C@H]1C[C@H](N)[C@H](O)[C@H](C)O1 [DOXORUBICIN] |  | 0.64 | 0.86 | 0.79 | Activity (K562 [8]): 3.5%; Activity (K562 [9]): 0.4; Activity (K562 [10]): 1; Activity (K562 [11]): inactive; Activity (K562 [12]): 0.7%
O=C(CCc1ccco1)Nc1ncc(Cc2ccccc2)s1 |  |  |  |  | IC50 (Hep 3B2): 0.089 µM
O=C(Nc1ncc(Cc2cccc(Cl)c2Cl)s1)c1cc2ccccc2o1 |  |  |  |  | IC50 (T47D): 0.0255 µM

The next lines start with results.

IC50 (K562 [3]) [µM] | Compound | IC50 at 72 h [1] [µM] | IC50 at 72 h [2] [µM] | IC50 at 72 h [4] [µM] | also measured
> 100 | Cc1nnnn1-c1ccc(C(=O)Nc2ncc(Cc3ccccc3)s2)cc1 | 3.61 | 6 | > 100 | 
> 100 | Cc1cccc(Cc2cnc(NC(=O)c3cccc(-n4cnnn4)c3)s2)c1 | 52.8 | > 100 | > 100 | 
> 100 | COc1ccc(Cc2cnc(NC(=O)c3ccc(-n4cnnn4)cc3)s2)cc1 | 8.22 | > 100 | > 100 | growth at 10 µM (K562 [7]): 36.7%
